Measured values reported in patent publication US20230044449A1, “NICLOSAMIDE FORMULATIONS AND METHODS OF USE AS CONTRACEPTIVE” (YourChoice Therapeutics, Inc., priority 2020, published 2023).
Where two headings read alike, the source gives them in different places.

How the values were obtained:
[1] = cited from earlier work
[2] = Saturation solubility in buffers (shake flask); format: physicochemical; conditions: 37° C., 24 hours
Description: Solubility was established using 100 mL of each of the chosen buffers, and was conducted using shake flask method. […] Further, the solution was agitated at 37° C. for 24 hours and checked physically for un-dissolved mass. This saturated solution was centrifuged and injected an aliquot in to the chromatograph.

[3] = Solubility in solvents/co-solvents; format: physicochemical
Description: Solubility of the drug was determined in selected solvent/co-solvents. About 10 g of the solvent was taken and small amount of drug was added in increments till 500 mg. […] These solutions were further diluted quantitatively to about test concentration and analyzed using chromatograph.

fresh human semen = assay: Spermicidal effect on mixing with fresh human semen (effective ranges); format: cell-based
Description: With niclosamide dissolved in DMSO, a spermicidal effect at ≥10 mM was observed. With niclosamide in formulation, a spermicidal effect at a final concentration between 5 mM and 7.5 mM or higher, was observed. The effective range for niclosamide was determined to be from 5-150 mM. Ranges of: A spermicidal effect at ≥50% (v/v/) was observed when mixing polyethylene glycol-400 (PEG-400) with fresh human semen. The effective range for PEG-400 was determined to be from 50-65%.

[4] = Saturation solubility in various solvents (PEG grades); format: physicochemical
Description: Saturation solubility of niclosamide was studied in the solvents, to know the highest concentration of niclosamide that can be solubilized, as depicted in table 6. [table]

[5] = test system: New Zealand white rabbits; assay: Vaginal irritation study, 7-day intravaginal instillation; format: in vivo
Description: Described herein is a study to assess and evaluate vaginal irritation effect of Niclosamide. A total of 9 female New Zealand white rabbits were used for the study described herein. The animals were divided into three groups of three animals in each group: Group 1 (G1) animals treated instilled/treated vehicle control; Group 2 (G2) animals instilled/treated with 2.5 mM dose of niclosamide; and Group 3 (G3) animals instilled/treated with 100 mM dose of niclosamide, as shown in Table 21.
Formulations preparation used for the study were as follows. Vehicle Preparation: 0.85% sodium chloride, 0.1% sorbic acid, 10% lactic acid and 75% water was taken in mortar and pestle and triturated, pH was adjusted to approximately 4.5 using 10 N sodium hydroxide. […] Remaining volume was adjusted with water. Total quantity was triturated again and formulation pH was confirmed with pH paper. […] Total quantity was triturated again and formulation pH was confirmed with pH paper.
Instillation of the treatment was done using prefilled FG-08 tube attached to 1 mL disposable syringe at a dose volume of 1.0 mL per animal continuously for 7 days (from day 1 to 7). Irritation potential was scored in all animals using draize scale daily before Niclosamide instillation and approximately 30 minutes after Niclosamide instillation daily from day 1 to 7 and 24 hours after last test item instillation (day 8). […]

human sperm = assay: Sperm motility of fresh human semen mixed with different concentrations of niclosamide (FIG. 1); format: cell-based
Description: FIG. 1 is a graph depicting the dose dependent effect of niclosamide dissolved in DMSO, on sperm motility. Fresh human semen samples were mixed with the different concentrations of niclosamide in vitro, followed by analysis of sperm motility within 2 minutes. The x-axis depicts the different concentrations of niclosamide mixed with the semen sample. The x-axis, from Left to Right: the gray bar depicts an untreated semen sample, the blue bar depicts a vehicle control, and the eight pink bars depict the increasing concentrations of niclosamide tested. […]
Sperm motility is a functional measurement of the sperm themselves. Sperm may be sampled either directly from semen or from washed sperm samples, and assessed for motility either manually or by CASA (Computer Assisted Sperm Analysis) (Chapter 59—Male Reproductive System. Systems Toxicologic Pathology. Dianne M. Creasy, Robert E. Chapin, in Haschek and Rousseaux's Handbook of Toxicologic Pathology (Third Edition), 2013; Amann R P et al. Computer-assisted sperm analysis (CASA): capabilities and potential developments. Theriogenology. 2014 Jan. 1; 81(1):5-17). Sperm motility (expressed as %) may be evaluated in duplicate within 1 h of semen collection, by counting moving and nonmoving sperm in several microscopic fields. […] Slow-moving sperm (class B+C) can be easily and accurately counted compared with rapidly moving (class A) sperm. […]

[6] = anhydrous form; cited from earlier work
[7] = Neutral Hydrolysis (3 mL H2O at 100° C. for 8 hours)

O=C(Nc1ccc([N+](=O)[O-])cc1Cl)c1cc(Cl)ccc1O [niclosamide]
% Degradation ([1]; Acid Hydrolysis (3 mL HCl at 100° C. for 8 hours)): No degradation | potency after degradation ([1]; Alkaline Hydrolysis (0.1N NaOH at 100° C. for 2 hours)): decreased to 97% | % Degradation ([1]; Alkaline Hydrolysis (0.1N NaOH at 100° C. for 2 hours), listed as drug substance): prone to alkaline hydrolysis | % Degradation, Impurity 1 [1, 7]: Impurity 1-0.02% | % Degradation, Impurity 2 [1, 7]: Impurity 2-0.03% | % Degradation, Impurity 3 ([1]; No stress Conditions): Impurity 3-0.04% | % Degradation ([1]; Oxidative Hydrolysis (3 mL H2O2 at 100° C. for 8 hours)): No degradation | % Degradation ([1]; Temperature Effect (100° C. for 8 hours)): No degradation | % Degradation ([1]; UV Exposure for 7 days): No degradation | Solubility ([2]; pH 1.2 (0.1N HCl)): insoluble and Nil | Solubility ([2]; pH 2.0 (0.01N HCl)): insoluble and Nil | Solubility ([2]; pH 3.0 acid phthalate buffer): insoluble and Nil | Solubility ([2]; pH 4.0 acid phthalate buffer): insoluble and Nil | Solubility ([2]; pH 4.5 acetate buffer): insoluble and Nil | Solubility ([2]; pH 5.1 acetate buffer): insoluble and Nil | Solubility ([3]; polyethylene glycol (PEG 400)): 47.4 mg/g | Solubility ([3]; polyethylene glycol (PEG 1000)): 46.6 mg/g | Solubility ([3]; polyethylene glycol (PEG 2000)): 45.6 mg/g | concentration with spermicidal effect (fresh human semen; niclosamide dissolved in DMSO): ≥ 10 mM | effective range for niclosamide (fresh human semen; spermicidal effect): 5 to 150 mM | amount of API solubilised completely ([4]; 10 g of PEG-400, stirring and heating at 50° C. for 40 min): 700 mg was | amount of API solubilised completely ([4]; 10 g of PEG-1000, stirring and heating at 50° C. for 40 min): 500 mg was | amount of API solubilised completely ([4]; 10 g of PEG-2000, stirring and heating at 50° C. for 40 min): 500 mg was | maximum solubility ([4]; in PEG-1000, heating and stirring): 5 % w/w | maximum solubility ([4]; in PEG-2000, heating and stirring): 5 % w/w | Clinical Signs and Mortality ([5]; 2.5 and 100 mM, 1.0 mL per animal intravaginally for 7 days, female rabbits): No treatment related mortality and adverse clinical signs | Gross Pathology of vagina ([5]; rabbit, in vivo): reddened at central lower half to caudal area mildly in all animals belonging to all groups | Minimum dose to see effect (inhibits sperm motility), concentration (human sperm; concentration in formulation): 4 mM | effective niclosamide concentration that causes 100% decrease in number of motile sperm cells (human sperm; fresh semen, 2 minutes, vs control sample): ≥ 10 mM | water solubility [6]: about 13.32 μg/mL
